The source of these data is patent publication US20250195474A1, “Piezo Inhibition for Wound Healing” (priority 2022, published 2025).

The test system of experiment [1] is existing scars. Briefly: Treatment of existing scars during remodeling (scar rescue). Format: in vivo, mouse. As to conditions: treated at POD 30, 75 or 120, harvested one month later. From the text: While wound re-epithelialization is complete relatively quickly (around 2 weeks), wounds continue to heal beneath the surface for months to years in a process known as scar remodeling. (Foster et al., 2021; Gurtner et al., 2008) Remodeling is the longest and least well understood phase of wound repair but is likely critical to ultimate outcomes. We postulated that ADFs could continue to play a role in scarring during the remodeling process; if this were the case, we wondered whether ADF activity could be targeted during wound remodeling, via P1i in existing, actively remodeling scars, to ultimately reduce scarring and drive regeneration (FIG. 6A,C). Thus, we administered P1i to existing scars at POD 30 (early remodeling period), POD 75 (mid-remodeling), and POD 120 (late remodeling), then harvested tissue one month later at POD 60, POD 105, and […] respectively (FIG. 6A, C).

The test system of experiment [2] is dorsal excisional wounds. As to conditions: POD 30; cited from earlier work.
Experiment [3] has as its system mouse adipocytes. Briefly: Mouse adipocyte-populated collagen I hydrogels with or without mechanical stretch. As to conditions: 10% equibiaxial strain, 7 days; GsMTx4 500 nM, D-GsMTx4 500 nM, PF573228 10 uM, Verteporfin 300 nM.
Experiment [4] has as its system human adipocytes. As to the kind of experiment: Human adipocyte-populated collagen I hydrogels with or without mechanical stretch.
The subject of experiment [5] is human adipocytes. As to the kind of experiment: Calcium imaging of hydrogel-bound adipocytes (Fluo-4 AM). In kind it is cell-based. As to conditions: stretched human adipocytes. The text has this:
Calcium imaging was used to determine in vitro Ca^2+ flow in hydrogel-bound adipocytes with or without mechanical strain and with or without Piezo1 inhibitor treatment. A Fluo-4, AM cell permeant kit (ThermoFisher, Cat: F-14201) was used per the manufacturer's instructions. […] Imagej was used for image quantification.

The test system of experiment [6] is dorsal excisional wounds. As to the kind of experiment: Splinted dorsal excisional wounding with inhibitor injected at POD 0. Format: in vivo, mouse.
The test system of experiment [7] is wounds. As to the kind of experiment: Visium spatial transcriptomic analysis of wounds. In kind it is in vivo, mouse. The method, then:
Wound specimens were rapidly harvested and flash frozen in OCT. Using the Visium Tissue Optimization Slide and Reagent Kit, permeabilization time was optimized at a thickness at 10 μm per section and 37 minutes for mouse tissue. Following cryo-sectioning at −20 degrees onto gene expression slides the expression slide and reagent kit was used to produce sequencing libraries. The libraries were then sequences using NextSeq (Illumina). Following demultiplication the raw FASTQ files and histology images were processed by sample with the Space Ranger software for genome alignment. The raw spaceranger output files for each sample was then read into a Seurat class object in R using Seurat's Load10× function. Data was normalized using the SCT transform with default parameters. To ascertain the integration of our scRNAseq and Visium spatial analysis we employed the FindTransferAnchors( ) function from Seurat, which allowed the alignment of data using the two datasets. This cross-platform linkage is performed serially in an unconstrained and constrained fashion.

The subject of experiment [8] is wounds. Briefly: CODEX spatial protein analysis of POD 14 wounds. In kind it is in vivo, mouse. As to conditions: POD 14, vs PBS. From the text:
To spatially phenotype the pig specimens, we used Co-Detection by Indexing (CODEX), a novel assay in which markers are labeled with oligonucleotide-conjugated antibodies and iteratively imaged between cyclic additions and washouts of dye-labeled oligonucleotides. A custom CODEX panel was designed to assess wound cells within the tissue see Table 1). In brief, primary antibodies were individually barcoded and validated using the commercial supplier's protocols. OCT for mouse or paraffin blocks for human xenograft (n=3 per group) were sectioned at 8 μm thickness onto coverslips for CODEX antibody staining. Antigens were retrieved by standard citrate-EDTA processing prior to addition of CODEX antibodies. Using a CODEX-integrated Keyence BZ-X instrument (Akoya Biosciences) image acquisition was then performed. Using software from Akoya Biosciences the raw images were process, with cell segmentation, and rendering.
The CODEX was visualized using Akoya Biosciences Multiplex Analysis Viewer (MAV) in ImageJ. The resulting .fcs files were then concatenated in FlowJo and imported into the Monocle3 and STvEA R packages for further analysis. After debris removal, the processed UMAP manifold was analyzed through Monocle3 with a post-manifold threshold of >10,000 cells per cluster. Analysis of the protein staining patterns was then used to assign cell types. The cell interactions were then inferred using STvEA for cell types at >2.5% of total abundance at k=20 nearest neighbors to quantify cell spatial interactions, and differential interaction maps were generated using graph scores.

The subject of experiment [9] is adipocytes. As to the kind of experiment: Adipocyte ablation with diphtheria toxin in wounded Adipoq Cre-ERT iDTR mice. Format: in vivo, mouse.
Experiment [10] relates to human fibroblasts. As to the kind of experiment: Human fibroblasts in 3D collagen gels with stretching. Format: cell-based. From the text: To further confirm that human cluster 3 represented a pro-regenerative ADF population we utilized our in vitro collagen gel system. We first, FACS sorted human fibroblasts based on expression of cluster 3 markers including ROBO2, CD29, and SFRP2 and seeded them into 3D collagen gels (FIG. 42B). […] In contrast, stretching with P1 inhibition kept the fibroblasts in a more adipocyte-like phenotype, with high expression of PPARg and low expression of Collagen Type I, similar to fibroblasts in an unstretched state (FIG. 42B).
To determine if P1i may activate […] Wnt pathways to maintain cluster 3 in an adipocyte-like phenotype, we applied Wnt5a recombinant protein to the in vitro collagen gel system (FIG. 42C). […] In summary, P1i treatment may revert fibroblasts towards the mechanically naïve fibroblast pro-regenerative fibroblast population through the activation of canonical Wnt pathways and thereby preventing the transition to pro-scarring phenotypes defined by CJUN and VCAM1 expression.

Turning to Verteporfin [YAPi], in experiment [1], the “wound regeneration in existing scars” value is on record as “did not induce regeneration”. The “hair regrowth (previous study, Mascharak et al., 2021a)” value in [2] is “allow for hair regrowth”. The “stretch-induced phenotypic switch (losing adiponectin, expressing Col1)” value (“stretch-induced phenotypic switch” for short) in experiment [3] is on record as “abrogated”.

As to `Clc1cccc(Cl)c1CSc1nnc(-c2cnccn2)s1` [Yoda1], in [4] (absence of applied stretch), the “adipocyte hypertrophy and conversion to fibroblasts” value was “sufficient to drive adipocyte hypertrophy and conversion to fibroblasts”.

As to D-GsMTx4 [P2i], the “calcium staining with stretching” value in [5] was “decreased”. Also, the “time to complete wound re-epithelialization” value in experiment [6] (30 uL of 0.2 mg/ml intradermal at wound edge, POD 0) is “did not significantly affect”. Moreover, the “Oil Red O staining and IF for cytokeratins 14/19 (regenerating appendages)” value in [6] (POD 14) is listed as “presence of putative regenerating sebaceous glands/HF”. In experiment [6] (POD 14, FACS and histology), the “adipocyte-derived fibroblasts (ADFs) in wounds” value was “significantly reduced”. Moreover, in experiment [6] (POD 14 and POD 30), the “Col1 and α-SMA” value is “reduced”; the ECM density entry was “less dense”. The hair follicle formation entry in experiment [6] (POD 30) was “allowed for hair follicle formation”. In experiment [7] (POD 14), the “differential interaction maps (Visium)” value was “strong interactions between adipocytes and fibroblasts”; the “fibroblast scRNA-seq cluster 0 (mechanically sensitive) spatial enrichment” value is reported as “highly enriched in PBS-treated POD 14 wounds compared to P1i or P2i treated wounds”; the “fibroblast scRNA-seq cluster 5 (mechanically naive) spatial presence” value is recorded as “observed”; the “spatially variable features (gene expression)” value is “high expression of markers associated with the epidermis including Krt1 and Krt14”. Moreover, the “adipocyte and epithelial cells in the spatial environment” value in [7] (POD 14, vs PBS) is reported as “enriched”. The “individual adipocyte-fibroblast subpopulation interactions (CODEX)” value in experiment [8] is “enhanced interactions between mechanically naïve subpopulations including adipocyte cluster 1 and fibroblast clusters 2 and 4”. In experiment [3], the “stretch-induced phenotypic switch” value is reported as “abrogated”. Also, the “stretch-induced hypertrophy of human adipocytes” value in [4] (10% equibiaxial strain, 7 days) is reported as “reversed”.

For diphtheria toxin [DT], in experiment [9] (200 ng intradermal daily over 3 days, unwounded skin and POD 14 wounds), the “subdermal fat and GFP+ cells (efficacy of ablation)” value is “minimal to no subdermal fat and no GFP^+ cells in wounds”. In [9] (POD 14), the ECM ultrastructure result was “less scar-like and more closely resembled unwounded skin”. Besides, in experiment [9] (POD 14, vs PBS control scars), the “Col1 and α-SMA content” value is on record as “decreased”; the ECM density entry was “less dense”; the dermal thickness entry is recorded as “significantly reduced”.

For the molecule `CS(=O)(=O)c1cccc(CNc2nc(Nc3ccc4c(c3)CCC(=O)N4)ncc2C(F)(F)F)c1` [FAKi, PF573228], the “stretch-induced phenotypic switch” value in experiment [3] was “abrogated”.

B1: Wnt5a recombinant protein: Wnt5a recombinant protein applied to the in vitro collagen gel system (protein, UniProt P41221 62-380, looked up)
Protein Wnt-5a: IIGAQPLCSQLAGLSQGQKKLCHLYQDHMQYIGEGAKTGIKECQYQFRHRRWNCSTVDNTSVFGRVMQIGSRETAFTYAVSAAGVVNAMSRACREGELSTCGCSRAARPKDLPRDWLWGGCGDNIDYGYRFAKEFVDARERERIHAKGSYESARILMNLHNNEAGRRTVYNLADVACKCHGVSGSCSLKTCWLQLADFRKVGDALKEKYDSAAAMRLNSRGKLVQVNSRFNSPTTQDLVYIDPSPDYCVRNESTGSLGTQGRLCNKTSEGMDGCELMCCGRGYDQFKTVQTERCHCKFHWCCYVKCKKCTEIVDQFVCK
For B1, the “phenotype of human fibroblasts (PPARg, Collagen Type 1)” value in [10] is “a more adipocyte like phenotype with high expression of PPARg and low expression of Collagen Type 1”.
